According to US20230017045A1, “PYRIDINE AND PYRIMIDINE CARBOXYLATE HERBICIDES AND METHODS OF USE THEREOF” (Dow AgroSciences LLC, priority 2017, published 2023):

Tested on: test plant species
Test: Post-emergent herbicidal activity test (greenhouse, foliar spray, visual growth reduction)
Type: in vivo
Settings: post-emergence, 336 h, ALOMY: blackgrass (Alopecurus myosuroides), 140 g ai/ha, 14 days after application, read-out: Visual Growth Reduction (%) 14 Days After Application, ALOMY
In short: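 Seedlings were raised 7-21 d in a greenhouse under a 15 h photoperiod until the first or second true leaf. Each compound, dissolved in acetone:DMSO 97:3 and diluted into a surfactant-containing spray mixture, was then applied at 187 L/ha. Plants were subirrigated, and growth reduction was scored visually at 14 d.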

Structure (SMILES)	pest or weed control at 140 g/ha
COC(=O)c1nc(-c2ccc(C(F)(F)F)cc2OC)ccc1Cl [F28, Methyl 3-chloro-6-(2-methoxy-4-(trifluoromethyl)phenyl)picolinate]	0 to 29%
COC(=O)c1nc(-c2ccc(C(C)F)cc2Cl)ccc1Cl (stereo not drawn) [F14, methyl 3-chloro-6-(2-chloro-4-(1-fluoroethyl)phenyl)-picolinate]	0 to 29%

Same assay, conditions: post-emergence, 336 h, AMARE: redroot pigweed (Amaranthus retroflexus), 140 g ai/ha, 14 days after application, read-out: Visual Growth Reduction (%) 14 Days After Application, AMARE

Structure (SMILES)	pest or weed control at 140 g/ha
COC(=O)c1nc(-c2ccc(C(F)(F)F)cc2OC)ccc1Cl [F28, Methyl 3-chloro-6-(2-methoxy-4-(trifluoromethyl)phenyl)picolinate]	60 to 74%
COC(=O)c1nc(-c2ccc(C(C)F)cc2Cl)ccc1Cl (stereo not drawn) [F14, methyl 3-chloro-6-(2-chloro-4-(1-fluoroethyl)phenyl)-picolinate]	0 to 29%

Same assay, conditions: post-emergence, 336 h, AVEFA: wild oat (Avena fatua), 140 g ai/ha, 14 days after application, read-out: Visual Growth Reduction (%) 14 Days After Application, AVEFA

Structure (SMILES)	pest or weed control at 140 g/ha
COC(=O)c1nc(-c2ccc(C(F)(F)F)cc2OC)ccc1Cl [F28, Methyl 3-chloro-6-(2-methoxy-4-(trifluoromethyl)phenyl)picolinate]	0 to 29%
COC(=O)c1nc(-c2ccc(C(C)F)cc2Cl)ccc1Cl (stereo not drawn) [F14, methyl 3-chloro-6-(2-chloro-4-(1-fluoroethyl)phenyl)-picolinate]	0 to 29%

Same assay, conditions: post-emergence, 336 h, CHEAL: lambsquarters (Chenopodium album), 140 g ai/ha, 14 days after application, read-out: Visual Growth Reduction (%) 14 Days After Application, CHEAL

Structure (SMILES)	pest or weed control at 140 g/ha
COC(=O)c1nc(-c2ccc(C(F)(F)F)cc2OC)ccc1Cl [F28, Methyl 3-chloro-6-(2-methoxy-4-(trifluoromethyl)phenyl)picolinate]	60 to 74%
COC(=O)c1nc(-c2ccc(C(C)F)cc2Cl)ccc1Cl (stereo not drawn) [F14, methyl 3-chloro-6-(2-chloro-4-(1-fluoroethyl)phenyl)-picolinate]	85 to 94%

Same assay, conditions: post-emergence, 336 h, CIRAR: canada thistle (Cirsium arvense), 140 g ai/ha, 14 days after application, read-out: Visual Growth Reduction (%) 14 Days After Application, CIRAR

Structure (SMILES)	pest or weed control at 140 g/ha
COC(=O)c1nc(-c2ccc(C(F)(F)F)cc2OC)ccc1Cl [F28, Methyl 3-chloro-6-(2-methoxy-4-(trifluoromethyl)phenyl)picolinate]	75 to 84%
COC(=O)c1nc(-c2ccc(C(C)F)cc2Cl)ccc1Cl (stereo not drawn) [F14, methyl 3-chloro-6-(2-chloro-4-(1-fluoroethyl)phenyl)-picolinate]	0 to 29%

Same assay, conditions: post-emergence, 336 h, CYPES: yellow nutsedge (Cyperus esculentus), 140 g ai/ha, 14 days after application, read-out: Visual Growth Reduction (%) 14 Days After Application, CYPES

Structure (SMILES)	pest or weed control at 140 g/ha
COC(=O)c1nc(-c2ccc(C(F)(F)F)cc2OC)ccc1Cl [F28, Methyl 3-chloro-6-(2-methoxy-4-(trifluoromethyl)phenyl)picolinate]	0 to 29%
COC(=O)c1nc(-c2ccc(C(C)F)cc2Cl)ccc1Cl (stereo not drawn) [F14, methyl 3-chloro-6-(2-chloro-4-(1-fluoroethyl)phenyl)-picolinate]	0 to 29%

Same assay, conditions: post-emergence, 336 h, DIGSA: crabgrass (Digitaria sanguinalis), 140 g ai/ha, 14 days after application, read-out: Visual Growth Reduction (%) 14 Days After Application, DIGSA

Structure (SMILES)	pest or weed control at 140 g/ha
COC(=O)c1nc(-c2ccc(C(F)(F)F)cc2OC)ccc1Cl [F28, Methyl 3-chloro-6-(2-methoxy-4-(trifluoromethyl)phenyl)picolinate]	45 to 59%
COC(=O)c1nc(-c2ccc(C(C)F)cc2Cl)ccc1Cl (stereo not drawn) [F14, methyl 3-chloro-6-(2-chloro-4-(1-fluoroethyl)phenyl)-picolinate]	0 to 29%

Same assay, conditions: post-emergence, 336 h, ECHCG: barnyardgrass (Echinochloa crus-galli), 140 g ai/ha, 14 days after application, read-out: Visual Growth Reduction (%) 14 Days After Application, ECHCG

Structure (SMILES)	pest or weed control at 140 g/ha
COC(=O)c1nc(-c2ccc(C(F)(F)F)cc2OC)ccc1Cl [F28, Methyl 3-chloro-6-(2-methoxy-4-(trifluoromethyl)phenyl)picolinate]	0 to 29%

Same assay, conditions: post-emergence, 336 h, IPOHE: ivy-leaf morning glory (Ipomoea hederacea), 140 g ai/ha, 14 days after application, read-out: Visual Growth Reduction (%) 14 Days After Application, IPOHE

Structure (SMILES)	pest or weed control at 140 g/ha
COC(=O)c1nc(-c2ccc(C(F)(F)F)cc2OC)ccc1Cl [F28, Methyl 3-chloro-6-(2-methoxy-4-(trifluoromethyl)phenyl)picolinate]	95 to 100%

Same assay, conditions: post-emergence, 336 h, KCHSC: kochia (Bassia scoparia), 140 g ai/ha, 14 days after application, read-out: Visual Growth Reduction (%) 14 Days After Application, KCHSC

Structure (SMILES)	pest or weed control at 140 g/ha
COC(=O)c1nc(-c2ccc(C(F)(F)F)cc2OC)ccc1Cl [F28, Methyl 3-chloro-6-(2-methoxy-4-(trifluoromethyl)phenyl)picolinate]	30 to 44%

Same assay, conditions: post-emergence, 336 h, ORYSA: rice (Oryza sativa), 140 g ai/ha, 14 days after application, read-out: Visual Growth Reduction (%) 14 Days After Application, ORYSA

Structure (SMILES)	pest or weed control at 140 g/ha
COC(=O)c1nc(-c2ccc(C(F)(F)F)cc2OC)ccc1Cl [F28, Methyl 3-chloro-6-(2-methoxy-4-(trifluoromethyl)phenyl)picolinate]	0 to 29%

Same assay, conditions: post-emergence, 336 h, SETFA: giant foxtail (Setaria faberi), 140 g ai/ha, 14 days after application, read-out: Visual Growth Reduction (%) 14 Days After Application, SETFA

Structure (SMILES)	pest or weed control at 140 g/ha
COC(=O)c1nc(-c2ccc(C(F)(F)F)cc2OC)ccc1Cl [F28, Methyl 3-chloro-6-(2-methoxy-4-(trifluoromethyl)phenyl)picolinate]	30 to 44%

Same assay, conditions: post-emergence, 336 h, SORVU: grain sorghum (Sorghum vulgare), 140 g ai/ha, 14 days after application, read-out: Visual Growth Reduction (%) 14 Days After Application, SORVU

Structure (SMILES)	pest or weed control at 140 g/ha
COC(=O)c1nc(-c2ccc(C(F)(F)F)cc2OC)ccc1Cl [F28, Methyl 3-chloro-6-(2-methoxy-4-(trifluoromethyl)phenyl)picolinate]	75 to 84%

Same assay, conditions: post-emergence, 336 h, STEME: common chickweed (Stellaria media), 140 g ai/ha, 14 days after application, read-out: Visual Growth Reduction (%) 14 Days After Application, STEME

Structure (SMILES)	pest or weed control at 140 g/ha
COC(=O)c1nc(-c2ccc(C(F)(F)F)cc2OC)ccc1Cl [F28, Methyl 3-chloro-6-(2-methoxy-4-(trifluoromethyl)phenyl)picolinate]	0 to 29%

Same assay, conditions: post-emergence, 336 h, TRZAS: wheat, spring (Triticum aestivum), 140 g ai/ha, 14 days after application, read-out: Visual Growth Reduction (%) 14 Days After Application, TRZAS

Structure (SMILES)	pest or weed control at 140 g/ha
COC(=O)c1nc(-c2ccc(C(F)(F)F)cc2OC)ccc1Cl [F28, Methyl 3-chloro-6-(2-methoxy-4-(trifluoromethyl)phenyl)picolinate]	0 to 29%

Same assay, conditions: post-emergence, 336 h, barnyardgrass (Echinochloa crus-galli), 14 Days After Application, 140 g ai/ha, read-out: Visual Growth Reduction (%) ECHCG

Structure (SMILES)	pest or weed control at 140 g/ha
COC(=O)c1nc(-c2ccc(C(C)F)cc2Cl)ccc1Cl (stereo not drawn) [F14, methyl 3-chloro-6-(2-chloro-4-(1-fluoroethyl)phenyl)-picolinate]	0 to 29%

Same assay, conditions: post-emergence, 336 h, common chickweed (Stellaria media), 14 Days After Application, 140 g ai/ha, read-out: Visual Growth Reduction (%) STEME

Structure (SMILES)	pest or weed control at 140 g/ha
COC(=O)c1nc(-c2ccc(C(C)F)cc2Cl)ccc1Cl (stereo not drawn) [F14, methyl 3-chloro-6-(2-chloro-4-(1-fluoroethyl)phenyl)-picolinate]	0 to 29%

Same assay, conditions: post-emergence, 336 h, giant foxtail (Setaria faberi), 14 Days After Application, 140 g ai/ha, read-out: Visual Growth Reduction (%) SETFA

Structure (SMILES)	pest or weed control at 140 g/ha
COC(=O)c1nc(-c2ccc(C(C)F)cc2Cl)ccc1Cl (stereo not drawn) [F14, methyl 3-chloro-6-(2-chloro-4-(1-fluoroethyl)phenyl)-picolinate]	0 to 29%

Same assay, conditions: post-emergence, 336 h, ivy-leaf morning glory (Ipomoea hederacea), 14 Days After Application, 140 g ai/ha, read-out: Visual Growth Reduction (%) IPOHE

Structure (SMILES)	pest or weed control at 140 g/ha
COC(=O)c1nc(-c2ccc(C(C)F)cc2Cl)ccc1Cl (stereo not drawn) [F14, methyl 3-chloro-6-(2-chloro-4-(1-fluoroethyl)phenyl)-picolinate]	45 to 59%

Same assay, conditions: post-emergence, 336 h, johnsongrass (Sorghum vulgare), 14 Days After Application, 140 g ai/ha, read-out: Visual Growth Reduction (%) SORVU

Structure (SMILES)	pest or weed control at 140 g/ha
COC(=O)c1nc(-c2ccc(C(C)F)cc2Cl)ccc1Cl (stereo not drawn) [F14, methyl 3-chloro-6-(2-chloro-4-(1-fluoroethyl)phenyl)-picolinate]	0 to 29%

Same assay, conditions: post-emergence, 336 h, kochia (Bassia scoparia), 14 Days After Application, 140 g ai/ha, read-out: Visual Growth Reduction (%) KCHSC

Structure (SMILES)	pest or weed control at 140 g/ha
COC(=O)c1nc(-c2ccc(C(C)F)cc2Cl)ccc1Cl (stereo not drawn) [F14, methyl 3-chloro-6-(2-chloro-4-(1-fluoroethyl)phenyl)-picolinate]	85 to 94%

Same assay, conditions: post-emergence, 336 h, rice (Oryza sativa), 14 Days After Application, 140 g ai/ha, read-out: Visual Growth Reduction (%) ORYSA

Structure (SMILES)	pest or weed control at 140 g/ha
COC(=O)c1nc(-c2ccc(C(C)F)cc2Cl)ccc1Cl (stereo not drawn) [F14, methyl 3-chloro-6-(2-chloro-4-(1-fluoroethyl)phenyl)-picolinate]	0 to 29%

Same assay, conditions: post-emergence, 336 h, wheat, spring (Triticum aestivum), 14 Days After Application, 140 g ai/ha, read-out: Visual Growth Reduction (%) TRZAS

Structure (SMILES)	pest or weed control at 140 g/ha
COC(=O)c1nc(-c2ccc(C(C)F)cc2Cl)ccc1Cl (stereo not drawn) [F14, methyl 3-chloro-6-(2-chloro-4-(1-fluoroethyl)phenyl)-picolinate]	0 to 29%
